Reference: ChEMBL document CHEMBL1122981, “Specific inhibition of benzodiazepine receptor binding by some N-(indol-3-ylglyoxylyl)amino acid derivatives” (J Med Chem, 1985)

Key:
[1] = target: GABA-A receptor; anion channel (Bos taurus) (UniProt P10063+P08220+P20237+P08219+P10064+P22300); experiment: Inhibition of specific [3H]flunitrazepam binding to benzodiazepine receptor at 250 uM; assay type: protein-complex assay
[2] = target: GABA-A receptor; anion channel; experiment: Inhibition of [3H]flunitrazepam binding to GABA-A central Benzodiazepine receptor of bovine brain membranes; assay type: cell membranes, Bos taurus

Row | SMILES | inhibition [1] [%] | IC50 [2] [µM]
1 | CCOC(=O)C(Cc1c[nH]c2ccccc12)NC(=O)C(=O)c1c[nH]c2ccc(Cl)cc12 (stereo not drawn) | 55 | –
2 | O=C(NC(Cc1ccc(O)cc1)C(=O)O)C(=O)c1c[nH]c2ccc(Br)cc12 (stereo not drawn) | 37 | –
3 | CC(NC(=O)C(=O)c1c[nH]c2ccc(Cl)cc12)C(=O)O (stereo not drawn) | 93 | 22
4 | CCOC(=O)CNC(=O)C(=O)c1c[nH]c2ccc(Cl)cc12 | 100 | 5.4
5 | CNC1=Nc2ccc(Cl)cc2C(c2ccccc2)=[N+]([O-])C1 [CHLORDIAZEPOXIDE] | – | 1.1
6 | CCOC(=O)C(Cc1ccccc1)NC(=O)C(=O)c1c[nH]c2ccc(Br)cc12 (stereo not drawn) | 65 | –
7 | O=C(NC(Cc1ccc(O)cc1)C(=O)O)C(=O)c1c[nH]c2ccc(Cl)cc12 (stereo not drawn) | 67 | –
8 | CCOC(=O)C(Cc1ccc(O)cc1)NC(=O)C(=O)c1c[nH]c2ccc(Br)cc12 (stereo not drawn) | 68 | –
9 | CCOC(=O)C(Cc1ccc(O)cc1)NC(=O)C(=O)c1c[nH]c2ccc(Cl)cc12 (stereo not drawn) | 89 | 80
10 | CCOC(=O)C(Cc1c[nH]c2ccccc12)NC(=O)C(=O)c1c[nH]c2ccccc12 (stereo not drawn) | 70 | –
11 | O=C(NC(Cc1c[nH]c2ccccc12)C(=O)O)C(=O)c1c[nH]c2ccc(Br)cc12 (stereo not drawn) | 66 | –
12 | O=C(O)CNC(=O)C(=O)c1c[nH]c2ccccc12 | 20 | –
13 | CCOC(=O)C(Cc1c[nH]c2cc([N+](=O)[O-])ccc12)NC(=O)C(=O)c1c[nH]c2ccccc12 (stereo not drawn) | 48 | –
14 | CCOC(=O)C(C)NC(=O)C(=O)c1c[nH]c2ccccc12 (stereo not drawn) | 80 | –
15 | CCOC(=O)CNC(=O)C(=O)c1c[nH]c2ccccc12 | 84 | –
16 | O=C(NC(Cc1c[nH]c2ccccc12)C(=O)O)C(=O)c1c[nH]c2ccccc12 (stereo not drawn) | 11 | –
17 | CC(NC(=O)C(=O)c1c[nH]c2ccccc12)C(=O)O (stereo not drawn) | 72 | –
18 | CC(C)C(NC(=O)C(=O)c1c[nH]c2ccc(Br)cc12)C(=O)O (stereo not drawn) | 72 | –
19 | CCOC(=O)C(Cc1ccccc1)NC(=O)C(=O)c1c[nH]c2ccc(OC)cc12 (stereo not drawn) | 60 | –
20 | O=C(NC(Cc1c[nH]c2ccccc12)C(=O)O)C(=O)c1c[nH]c2ccc(Cl)cc12 (stereo not drawn) | 61 | –
21 | CC(NC(=O)C(=O)c1c[nH]c2ccc([N+](=O)[O-])cc12)C(=O)O (stereo not drawn) | 94 | 6.2
22 | CCOC(=O)C(C)NC(=O)C(=O)c1c[nH]c2ccc(Br)cc12 (stereo not drawn) | 100 | 4.8
23 | CC(C)C(NC(=O)C(=O)c1c[nH]c2ccc(Cl)cc12)C(=O)O (stereo not drawn) | 68 | –

Row | SMILES | inhibition [1] [%] | IC50 [2] [µM]
24 | COc1ccc2[nH]cc(C(=O)C(=O)NC(Cc3ccccc3)C(=O)O)c2c1 (stereo not drawn) | 38 | –
25 | CCOC(=O)C(NC(=O)C(=O)c1c[nH]c2ccc(OC)cc12)C(C)C (stereo not drawn) | 66 | –
26 | O=C(O)CNC(=O)C(=O)c1c[nH]c2ccc(Cl)cc12 | 82 | 38
27 | CCOC(=O)C(NC(=O)C(=O)c1c[nH]c2ccccc12)C(C)C (stereo not drawn) | 77 | –
28 | CCOC(=O)C(NC(=O)C(=O)c1c[nH]c2ccc(Br)cc12)C(C)C (stereo not drawn) | 88 | –
29 | COC(=O)C(Cc1ccc(O)cc1)NC(=O)C(=O)c1c[nH]c2ccc([N+](=O)[O-])cc12 (stereo not drawn) | 100 | 20
30 | O=C(NC(Cc1c[nH]c2cc([N+](=O)[O-])ccc12)C(=O)O)C(=O)c1c[nH]c2ccccc12 (stereo not drawn) | 31 | –
31 | O=C(NC(Cc1ccc(O)cc1)C(=O)O)C(=O)c1c[nH]c2ccccc12 (stereo not drawn) | 27 | –
32 | CCOC(=O)C(Cc1c[nH]c2ccccc12)NC(=O)C(=O)c1c[nH]c2ccc([N+](=O)[O-])cc12 (stereo not drawn) | 59 | –
33 | O=C(NC(Cc1ccccc1)C(=O)O)C(=O)c1c[nH]c2ccc(Br)cc12 (stereo not drawn) | 62 | –
34 | CCOC(=O)C(C)NC(=O)C(=O)c1c[nH]c2ccc([N+](=O)[O-])cc12 (stereo not drawn) | 100 | 0.2
35 | O=C1CN=C(c2ccccc2)c2cc([N+](=O)[O-])ccc2N1 [NITRAZEPAM] | – | 0.038
36 | CN1C(=O)CN=C(c2ccccc2)c2cc(Cl)ccc21 [DIAZEPAM] | – | 0.041
37 | CCOC(=O)C(C)NC(=O)C(=O)c1c[nH]c2ccc(Cl)cc12 (stereo not drawn) | 100 | 0.5
38 | CCOC(=O)C(NC(=O)C(=O)c1c[nH]c2ccc(Cl)cc12)C(C)C (stereo not drawn) | 62 | –
39 | COc1ccc2[nH]cc(C(=O)C(=O)NC(C(=O)O)C(C)C)c2c1 (stereo not drawn) | 12 | –
40 | CCOC(=O)C(Cc1c[nH]c2ccccc12)NC(=O)C(=O)c1c[nH]c2ccc(Br)cc12 (stereo not drawn) | 100 | 22
41 | O=C(NC(Cc1ccc(O)cc1)C(=O)O)C(=O)c1c[nH]c2ccc([N+](=O)[O-])cc12 (stereo not drawn) | 81 | 75
42 | COC(=O)C(Cc1ccc(O)cc1)NC(=O)C(=O)c1c[nH]c2ccccc12 (stereo not drawn) | 50 | –
43 | CC(C)C(NC(=O)C(=O)c1c[nH]c2ccc([N+](=O)[O-])cc12)C(=O)O (stereo not drawn) | 83 | 60
44 | CCOC(=O)CNC(=O)C(=O)c1c[nH]c2ccc(Br)cc12 | 100 | 2
45 | CC(C)C(NC(=O)C(=O)c1c[nH]c2ccccc12)C(=O)O (stereo not drawn) | 28 | –
